Assay [1] deals with A549 cells. Briefly: Mitochondrial ROS, MitoSOX staining. Type of assay: cell-based, human. The settings on record: A549, 2 h, 50 µM. The protocol: (§1) Intramitochondrial reactive oxygen species (ROS) were measured using the MitoSOX fluorescent probe (Invitrogen ThermoScientific, # M36008), according to the manufacturer’s instructions. For total ROS, cells were incubated with 5 µmol/L of 5-(and-6)-chlorometyl-20,70-dichlorodihydro-fluorescein diacetate-acetoxymethyl ester (DCFDA-AM, Sigma, #21,884), as described by Riganti et al. 2015 [21]. The results are expressed as nmoles/mg mitochondrial or cellular proteins, respectively.

For assay [2], the system named is MCF7 cells. Put plainly: Mitochondrial ROS, MitoSOX staining. To be noted: MCF7, 2 h, 50 µM. Type of assay: cell-based, human. How it is done:
as §1

The next assay has as its target T1, P-gp (Homo sapiens, UniProt P08183).
T1 construct: expressed in transfected cells; host or cells: MDCK-MDR1
Briefly: P-gp activity, Calcein-AM assay in MDCK-MDR1 cells. To be noted: read-out: P-gp Activity EC50 ± SEM. It counts as cell-based. How it is done:
According to a previously reported procedure, MDCK-MDR1 cell lines (50,000 cells per well) were seeded into black CulturePlate 96/wells plate with […] medium and grown overnight to confluence. Aliquots (100 µL) of tested compounds in culture medium, at scalar concentrations ranging from 0,1 to 100 µM, were added to each well. The plate was incubated at 37 °C for 30 min, Calcein-AM in phosphate buffered saline (PBS, […]) was added to each well at a final concentration of […], and the plate was incubated for 30 min. The plate was washed 3 times with […] ice cold PBS, Saline buffer ([…]) was added to each well and the plate was read by a PerkinElmer Victor3 spectrofluorimeter at excitation and emission wavelengths of 485 nm and 535 nm, respectively. Under these conditions, calcein cell accumulation in the absence and in the presence of tested compounds was evaluated, and a fluorescence basal level was estimated by untreated cells. In treated wells, the increase of fluorescence with respect to the basal level was measured, EC50 values were determined by fitting the fluorescence increase percentage versus log[dose] with GraphPad Prism Software 5,0 (GraphPad Software, Inc,: San Diego, CA).

For assay [3], the system named is A549 cells. Briefly: Mitochondrial depolarization, JC-1 staining. The settings on record: A549, 2 h, 50 µM. Type of assay: cell-based, human. How it is done:
(§2) Staining with the JC-1 fluorescent probe (Biotium Inc., Freemont, CA; #30,001-30001-T) was performed as described in Riganti et al. 2015 [21]. Fluorescence units were used to calculate the percentage of green-fluorescent (i.e., depolarized) mitochondria vs red-fluorescent (i.e., polarized) mitochondria.

In assay [4] the test system is MCF7 cells. Put plainly: Mitochondrial depolarization, JC-1 staining. Type of assay: cell-based, human. The settings on record: MCF7, 2 h, 50 µM. The protocol: as §2
For the next assay, the system named is MCF7 and A549 cells. Put plainly: Whole cell ROS, DCFDA-AM probe. It counts as cell-based, human. The settings on record: MCF7 and A549, 2 h, 50 µM. How it is done: as §1
A further assay has as its system caspase 7 in A549 cells. Briefly: Caspase 7 activity, fluorimetric. The settings on record: A549, 2 h, 50 µM. Type of assay: cell-based, human. How it is done: (§3) Activation of caspase 3, caspase 7 and caspase 9 was measured using the Caspase 3/7 Fluorescence Assay kit (Cayman Chemical, Ann Arbor, MI; #10,009,135) and the Caspase 9 fluorimetric assay kit (Enzo Life Science, Roma, Italy; #ALX-850-224). The results were expressed as nmoles of the hydrolyzed substrate of each caspase/mg cellular proteins, according to a previously set titration curve.

The subject of the next assay is caspase 7 in MCF7 cells. Put plainly: Caspase 7 activity, fluorimetric. Type of assay: cell-based, human. To be noted: MCF7, 2 h, 50 µM. How it is done:
as §3

In the next assay the target is sigma-2 receptors (Homo sapiens, UniProt Q5BJF2). To be noted: read-out: Sigma-2 Affinity Ki; cited from earlier work.
The test system of assay [5] is GRP78, ATF6, IRE1, PERK in MCF7 cells. Briefly: ER stress markers, qRT-PCR and immunoblotting. Type of assay: cell-based, human. To be noted: MCF7, 2 h, 50 µM. How it is done: (§4) 1 μg total RNA was reverse-transcribed using the iScript Reverse Transcription Supermix kit (Bio-Rad Laboratories, Hercules, CA; #1,708,840), according to the manufacturer’s instruction. 25 ng cDNA were amplified with 10 μL IQ™ SYBR Green Supermix (Bio-Rad Laboratories, # 1708880B05). Primers were designed with the qPrimer Depot software (http://primerdepot.nci.nih.gov/). qRT-PCR was carried out with a CFX96™ Real-Time Detector System (Bio-Rad Laboratories). Cycling conditions were: 30 s at 95 °C, followed by 40 cycles of denaturation (15 s at 95 °C), annealing/extension (30 s at 60 °C). The same cDNA preparation was used to quantify the genes of interest and the housekeeping gene S14, used to normalize gene expression. The relative quantitation of each sample was carried out using the Gene Expression Quantitation software (Bio-Rad Laboratories). Results were expressed in arbitrary units. For each gene, the expression in untreated cells was assumed to be “1”.
(§5) Cells were rinsed with ice-cold lysis buffer (50 mM, Tris, 10 mM EDTA, 1% v/v Triton-X100), supplemented with the protease inhibitor cocktail set III (80 μM aprotinin, 5 mM bestatin, 1.5 mM leupeptin, 1 mM pepstatin; Sigma, # 535,140), 2 mM phenylmethylsulfonyl fluoride (Sigma: #P7626) and 1 mM Na3VO4, (Sigma; #S6508) then sonicated and centrifuged at 13,000 × g for 10 min at 4 °C. 20 μg protein extracts were subjected to SDS–PAGE and probed with the antibodies for: GRP78 (#ab21685), ATF6 (#ab122897), IRE-1 (#ab37073), PERK (#ab65142), actin (#ab1801) (all from Abcam, Cambridge, UK), followed by a peroxidase-conjugated secondary antibody (Bio-Rad Laboratories). The membranes were washed with Tris-buffered saline-Tween 0.1% v/v solution, and the proteins were detected by enhanced chemiluminescence (Bio-Rad Laboratories, #1,705,061). The densitometric analysis was performed using the ImageJ software (https://imagej.nih.gov/), calculating the ratio protein of interest/actin band density, putting actin band density as 1 relative unit in each condition. Densitometric analysis and whole blots are included as Supporting Information.

Assay [6] deals with GRP78, ATF6, IRE1, PERK in A549 cells. Briefly: ER stress markers, qRT-PCR and immunoblotting. It counts as cell-based, human. To be noted: A549, 2 h, 50 µM. The protocol:
as §4, §5
In general terms: In qPCR the cycle at which signal appears reflects the starting amount.

A further assay concerns caspase 3 in MCF7 cells. Briefly: Caspase 3 activity, fluorimetric. Type of assay: cell-based, human. The settings on record: MCF7, 2 h, 50 µM. The protocol:
as §3

The subject of another assay is caspase 3 in A549 cells. Briefly: Caspase 3 activity, fluorimetric. It counts as cell-based, human. To be noted: A549, 2 h, 50 µM. The protocol:
as §3

T1 sequence (P08183 whole entry): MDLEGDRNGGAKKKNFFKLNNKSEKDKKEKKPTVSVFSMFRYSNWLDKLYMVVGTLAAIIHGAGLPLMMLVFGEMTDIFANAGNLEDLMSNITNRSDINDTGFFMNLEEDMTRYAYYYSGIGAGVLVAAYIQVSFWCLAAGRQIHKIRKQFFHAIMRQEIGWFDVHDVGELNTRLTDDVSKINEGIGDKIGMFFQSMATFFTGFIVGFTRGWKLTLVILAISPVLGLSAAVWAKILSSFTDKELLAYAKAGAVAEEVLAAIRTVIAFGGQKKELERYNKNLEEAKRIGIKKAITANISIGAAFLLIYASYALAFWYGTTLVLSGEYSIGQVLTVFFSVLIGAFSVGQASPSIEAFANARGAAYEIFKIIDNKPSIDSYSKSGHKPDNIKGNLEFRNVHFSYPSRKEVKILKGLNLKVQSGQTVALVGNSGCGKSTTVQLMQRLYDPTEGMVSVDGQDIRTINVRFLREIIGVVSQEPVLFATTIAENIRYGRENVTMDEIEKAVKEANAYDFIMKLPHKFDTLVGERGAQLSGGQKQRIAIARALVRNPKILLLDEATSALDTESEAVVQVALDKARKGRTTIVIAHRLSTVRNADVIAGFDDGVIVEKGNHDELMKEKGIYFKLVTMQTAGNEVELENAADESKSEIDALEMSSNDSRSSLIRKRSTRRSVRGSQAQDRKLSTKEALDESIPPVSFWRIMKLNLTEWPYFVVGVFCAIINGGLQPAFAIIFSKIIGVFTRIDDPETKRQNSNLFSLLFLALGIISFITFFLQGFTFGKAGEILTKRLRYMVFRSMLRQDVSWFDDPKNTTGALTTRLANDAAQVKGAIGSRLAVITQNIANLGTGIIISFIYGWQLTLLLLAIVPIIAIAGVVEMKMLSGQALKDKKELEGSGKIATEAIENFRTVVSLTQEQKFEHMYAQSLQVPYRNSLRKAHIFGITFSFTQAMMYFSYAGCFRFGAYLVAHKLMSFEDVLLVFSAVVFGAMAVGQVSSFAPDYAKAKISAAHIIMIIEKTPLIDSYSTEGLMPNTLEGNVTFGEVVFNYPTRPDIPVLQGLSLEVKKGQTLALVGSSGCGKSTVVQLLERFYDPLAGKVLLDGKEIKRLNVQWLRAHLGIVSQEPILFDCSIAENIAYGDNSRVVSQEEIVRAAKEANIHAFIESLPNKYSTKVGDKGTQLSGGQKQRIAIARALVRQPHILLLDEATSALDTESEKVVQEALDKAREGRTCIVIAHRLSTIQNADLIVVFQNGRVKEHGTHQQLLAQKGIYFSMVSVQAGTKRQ
Sequence of sigma-2 receptors (Q5BJF2 whole entry): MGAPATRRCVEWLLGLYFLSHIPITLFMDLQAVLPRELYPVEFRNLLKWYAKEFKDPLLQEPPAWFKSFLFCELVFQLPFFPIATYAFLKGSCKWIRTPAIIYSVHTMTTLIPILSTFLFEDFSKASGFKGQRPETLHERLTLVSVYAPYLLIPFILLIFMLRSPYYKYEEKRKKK

Regarding `CN(C)C(=S)N/N=C1\C(=O)N(CCCCN2CCC3(CC2)OCc2ccccc23)c2ccccc21` [FA4, (Z)-2-(1-(4-(3H-spiro[isobenzofuran-1,4′-piperidine]-1′-yl)butyl)-2-oxoindolin-3-ylidene)-N,N-dimethylhydrazinecarbothioamide], the “Mitochondrial ROS (MitoSOX)” value in the assay on A549 cells [1] and in the assay with MCF7 cells [2] was “increased” each time. At P-gp, the EC50 was 3.8 µM. Moreover, the “Mitochondrial depolarization (JC-1 staining)” value with A549 cells [3] was “totally insensitive”; in the assay with MCF7 cells [4], “strong depolarization”. In addition, the “ROS levels in whole cells (DCFDA-AM)” value in the assay on MCF7 and A549 cells is “higher”. Besides, the “Caspase 7 activation” value in the assay on caspase 7 in A549 cells and in the assay with caspase 7 in MCF7 cells was “activate” each time. The Ki on sigma-2 receptors is 0.0158 µM. For the same molecule, the “Expression of ER stress markers GRP78, ATF6, IRE1, PERK” value in [5] and in assay [6] was “increased” each time. For the same molecule, the “Caspase 3 activation” value in the assay with caspase 3 in MCF7 cells and in the assay on caspase 3 in A549 cells was “most potent inducer of caspase 3 in both cell lines” throughout.

One may read the EC50 as the midpoint of the concentration-response curve. For orientation: Ki means the equilibrium dissociation constant of an inhibitor or competing ligand from its target.
